# Measurements published in paper PMC10458118, “Bitter Almond Albumin ACE-Inhibitory Peptides: Purification, Screening, and Characterization In Silico, Action Mechanisms, Antihypertensive Effect In Vivo, and Stability” (Molecules, 2023).
# Ends that are not written are not given here.
# Assays:
# ACE [1] = conditions: cited from earlier work; for IC50: read-out: Inhibitory capacity on ACE (IC50); for ACE-inhibitory activity in words: 30 (ADMIET, QTPHQ, ELHPQ), ref 27 (RTVFDGEL, RADVFNPR)
# Excerpt: The results of ultra-high-performance liquid chromatography and quantum-ultra mass spectrometric determination of BAAH-4-C are shown in Table 1 and Figure 4. Five oligopeptides, […]([…]), Lys-Thr-Glu-Thr-Gln-Pro (KTETQP), […]([…]), […]([…]), and Thr-Cys-Gly-Ala-Ser (TCGAS) were obtained. However, only […] offered potential antihypertension based on the vector machine software score (1.35) calculated by the database AHTpin [28]. […] As shown in the Lineweaver–Burk diagram of ACE, the Km increased with the increasing […] dose, but the maximum velocity (Vmax) decreased when the […] dose increased, which was the typical effect of noncompetitive inhibitors. Peptides such as […] an ... || To the best of our knowledge, this is the first study to simultaneously investigate the capacities of bitter almond albumin peptides to inhibit ACE and bind with zinc ions. Previous studies evidenced that thermolysin could quickly cleave the amide bonds linked with hydrophobic amino acid residues, with the released hydrophobic amino acid residues playing an important role in ACE inhibition; whereas papain cleaves multiple sites of polypeptide chains, especially peptide bonds linking with acidic amino acid residues (Glu and Asp), Arg, and aromatic amino acids which was helpful for the release o ... || (+ 2 further places)
# SHR = conditions: cited from earlier work
# Excerpt: Zinc chelation may change the coordination of peptides toward ACE, resulting in lower ACE-inhibitory activity and antihypertension.
# [2] = Chelating ability toward zinc ions, 4-(β-Pyridinazo)-resorcinol method; assay type: physicochemical; conditions: 0.75 mmol·L^−1 ZnSO4 in HEPES-KOH buffer, peptide solution 0.8 mg·mL^−1, 15 min, 25 °C; repeated three or more times
# Method: (§1) In short, 0.75 mmol·L^−1 of ZnSO4 (dissolved in 0.2 mmol·L^−1 of HEPES-KOH buffer) and 10 mmol·L^−1 of 1,4-Dithiothreitol were added into a glass tube. The tube was incubated in the THZ-82AB thermostatic oscillator (195 r·min^−1 and 25 °C). Five minutes later, the zinc concentration in the glass tube was measured and read as C0. Next, the BAAH peptides aqueous solution (0.8 mg·mL^−1) was added and the mixture was continuously shaken for another 15 min. Then, the zinc concentration in the glass tube was measured and read as Ct. The chelating ability of BAAH peptides toward zinc ions was calculated as follows, and ethylenediamine tetraacetic acid (EDTA) was used as the positive control. (1) Chelating ability towards zinc ions (mg·g^−1) = (C0−Ct) × V/m where V and m represent the volume of the reaction solution (mL) and the mass weight of BAAH peptides (g), respectively.
# ACE [3] = target: T1, ACE (Oryctolagus cuniculus, UniProt P12822); assay: ACE inhibition, N-hippuryl-L-histidyl-L-leucine method; assay type: biochemical; conditions: synthesized peptide; HHL 5 mmol·L^−1, boric acid buffer pH 8.3, 37 °C, 10 min pre-incubation, 1 h reaction, absorbance at 228 nm; read-out: Inhibitory effect against ACE (IC50)
# T1 construct: purchased Sigma (St. Louis, MO, USA)
# T1 sequence (P12822 34-1310): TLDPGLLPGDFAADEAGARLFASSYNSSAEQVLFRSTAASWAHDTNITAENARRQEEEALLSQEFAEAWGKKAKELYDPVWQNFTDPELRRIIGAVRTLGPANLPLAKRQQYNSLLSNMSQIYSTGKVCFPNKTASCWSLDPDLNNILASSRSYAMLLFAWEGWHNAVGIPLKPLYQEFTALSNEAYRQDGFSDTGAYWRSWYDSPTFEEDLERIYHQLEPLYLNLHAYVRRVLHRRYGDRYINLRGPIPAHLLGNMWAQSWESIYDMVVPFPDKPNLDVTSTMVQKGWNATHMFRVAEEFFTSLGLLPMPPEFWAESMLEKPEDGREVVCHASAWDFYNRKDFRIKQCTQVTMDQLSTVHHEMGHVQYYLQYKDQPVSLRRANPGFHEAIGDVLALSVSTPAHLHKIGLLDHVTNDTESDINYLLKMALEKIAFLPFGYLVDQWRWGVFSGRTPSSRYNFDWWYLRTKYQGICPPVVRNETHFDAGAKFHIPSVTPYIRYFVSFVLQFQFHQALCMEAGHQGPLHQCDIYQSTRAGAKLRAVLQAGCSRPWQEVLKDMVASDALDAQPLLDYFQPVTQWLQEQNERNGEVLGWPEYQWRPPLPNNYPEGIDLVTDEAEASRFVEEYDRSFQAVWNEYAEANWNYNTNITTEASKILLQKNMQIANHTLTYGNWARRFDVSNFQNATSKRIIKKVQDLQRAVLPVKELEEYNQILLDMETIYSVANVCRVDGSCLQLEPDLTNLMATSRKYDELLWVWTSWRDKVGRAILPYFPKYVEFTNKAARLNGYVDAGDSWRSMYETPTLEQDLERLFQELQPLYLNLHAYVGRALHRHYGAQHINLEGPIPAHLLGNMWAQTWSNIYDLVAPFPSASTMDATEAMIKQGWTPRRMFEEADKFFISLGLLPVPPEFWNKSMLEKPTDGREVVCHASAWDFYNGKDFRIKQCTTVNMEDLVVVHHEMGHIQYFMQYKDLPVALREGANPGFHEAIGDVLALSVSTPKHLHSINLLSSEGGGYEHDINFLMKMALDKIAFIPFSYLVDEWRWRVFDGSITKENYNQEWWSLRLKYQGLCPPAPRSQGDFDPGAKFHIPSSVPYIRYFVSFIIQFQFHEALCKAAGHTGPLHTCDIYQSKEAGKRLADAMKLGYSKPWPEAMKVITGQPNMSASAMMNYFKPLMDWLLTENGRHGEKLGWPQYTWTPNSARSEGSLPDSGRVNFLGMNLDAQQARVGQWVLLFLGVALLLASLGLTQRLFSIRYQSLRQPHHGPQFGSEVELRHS
# Method: The N-hippuryl-L-histidyl-L-leucine method was utilized for the determination of the inhibiting capacity of BAAH peptides toward ACE [30]. In a glass test tube, 0.2 mL of ACE solution (dissolved in boric acid buffer, pH 8.3) and 0.2 mL of BAAH peptide aqueous solution (1 mg·mL^−1) were added. The mixture in the glass tube was shaken in a water bath at 143 r·min^−1 and 37 °C. Ten minutes later, 0.65 mL of N-hippuryl-L-histidyl-L-leucine (5 mmol·L^−1, dissolved in boric acid buffer, pH 8.3) was added. After continuously shaking for 1 h, 0.75 mL of dilute hydrochloric acid was added into the tube. Next, hippuric acid produced in the reaction solution was extracted by ethyl acetate (1.25 mL). The hippuric acid solution (the supernatant) was sucked out with a pipette (DG-1, Dragon TopPette, Beijing, China) and heated at 70 °C to evaporate the ethyl acetate. The residual hippuric acid was resolved in distilled water, and its absorbance at 228 nm was read. The inhibition capacity of BAAH peptides against ACE was the percentage of the absorbance reduction value at 228 nm to the absorbance of the control group (without BAAH peptide). The concentration of BAAH peptides was defined as IC50 when the activity of ACE was inhibited by half.
# ACE [4] = assay: ACE inhibition after simulated gastrointestinal digestion (pepsin, then pancreatin); assay type: in vitro ADME; conditions: pepsin pH 2.00, 90 min, then pancreatin pH 7.00, 150 min, 37 °C; p > 0.5 as printed
# Method: The N-hippuryl-L-histidyl-L-leucine method was utilized for the determination of the inhibiting capacity of BAAH peptides toward ACE [30]. In a glass test tube, 0.2 mL of ACE solution (dissolved in boric acid buffer, pH 8.3) and 0.2 mL of BAAH peptide aqueous solution (1 mg·mL^−1) were added. The mixture in the glass tube was shaken in a water bath at 143 r·min^−1 and 37 °C. Ten minutes later, 0.65 mL of N-hippuryl-L-histidyl-L-leucine (5 mmol·L^−1, dissolved in boric acid buffer, pH 8.3) was added. After continuously shaking for 1 h, 0.75 mL of dilute hydrochloric acid was added into the tube. Next, hippuric acid produced in the reaction solution was extracted by ethyl acetate (1.25 mL). The hippuric acid solution (the supernatant) was sucked out with a pipette (DG-1, Dragon TopPette, Beijing, China) and heated at 70 °C to evaporate the ethyl acetate. The residual hippuric acid was resolved in distilled water, and its absorbance at 228 nm was read. The inhibition capacity of BAAH peptides against ACE was the percentage of the absorbance reduction value at 228 nm to the absorbance of the control group (without BAAH peptide). The concentration of BAAH peptides was defined as IC50 when the activity of ACE was inhibited by half. Captopril was used as the positive control. […]
# [5] = Zinc-chelating ability after simulated gastrointestinal digestion (pepsin, then pancreatin); assay type: in vitro ADME; conditions: 5 mg/mL peptide; pepsin pH 2.00, 90 min, then pancreatin pH 7.00, 150 min, 37 °C; then 4-(β-Pyridinazo)-resorcinol method
# Method: as §1
# In a stirring (115 r·min^−1) water bath at 37 °C, the BAAH peptides’ aqueous solution (5 mg/mL, 10 mL) was added into a glass test tube, and the pH value was adjusted to 2.00 ± 0.05 with dilute hydrochloric acid solution (0.5 mol·L^−1). […] Afterward, both the chelating ability toward zinc ion, and the inhibition activity of BAAH peptides against ACE were determined using the 4-(β-Pyridinazo)-resorcinol method and N-hippuryl-L-histidyl-L-leucine method, respectively. […]
substance,measurement,setting,value
FMRWRDRFL [peptide isolated from tombul hazelnut],IC50,ACE [1],260 µM
QTPHQ [peptide derived from canary seeds],ACE-inhibitory activity in words,ACE [1],high ACE-inhibitory activities
ELHPQ [peptide derived from canary seeds],ACE-inhibitory activity in words,ACE [1],high ACE-inhibitory activities
LYSPLLKYFD [peptide from rice bran],Antihypertensive effects on SHR,SHR,dose-dependent antihypertensive effects
same,Effect of the addition of zinc ions on antihypertension,SHR,reduce
QPPAAAAAAGAG,Chelating ability toward zinc ions,[2],1.14 ± 0.01 g mg·g^−1
HLNVVHEN [peptide identified from walnut protein],ACE inhibitory pattern,ACE [1],noncompetitive
ADMIET [peptide identified in Lepidium meyenii],ACE-inhibitory activity in words,ACE [1],high ACE-inhibitory activities
LVRYYLLVR [peptide from hazelnut protein],ACE inhibitory pattern,ACE [1],noncompetitive
RADVFNPR [peptide derived from palm kernel glutelin-1],ACE-inhibitory activity in words,ACE [1],excellent ability to restrain ACE
PGSGCAGTDL [called Mung bean-derived in b48],ACE inhibitory pattern,ACE [1],noncompetitive
same,Antihypertensive effects on SHR,SHR,dose-dependent antihypertensive effects
same,Effect of the addition of zinc ions on antihypertension,SHR,reduce
EKTFLLYSCPHR [peptide identified from camel milk],IC50,ACE [1],312 µM
RPPSEDEDQE,IC50,ACE [3],206 µM
same,"Zinc-chelating ability and ACE-inhibitory capacity after hydrolysis of gastrointestinal proteases, versus untreated peptide",ACE [4],not significantly reduced
same,Chelating ability toward zinc ions after gastrointestinal digestion,[5],18.55 ± 0.95 mg/g
KTETQP [KTETQP],Chelating ability toward zinc ions,[2],19.30 ± 1.46 e mg·g^−1
KYPHVF [symbiotic peptide],ACE inhibition ability after zinc chelation,ACE [1],not significantly reduced
RTVFDGEL [peptide derived from palm kernel glutelin-1],ACE-inhibitory activity in words,ACE [1],excellent ability to restrain ACE
GYGYNY [camellia peptide],Antihypertensive effects on SHR,SHR,dose-dependent antihypertensive effects
same,Effect of the addition of zinc ions on antihypertension,SHR,reduce
